One may read the inhibition as how much of the control response was suppressed.

The subject of data set [1] is Peritoneal macrophage. In words: Anti-inflammatory activity in C57BL/6 mouse primary peritoneal macrophages assessed as inhibition of LPS-induced IL-6 secretion at 10 uM preincubated for 30 mins followed by LPS addition measured after 24 hrs by ELISA relative to control. The class given is functional. Conditions: for inhibition at 10 µM: C57BL/6, Peritoneal macrophage.

Data set [2] deals with Peritoneal macrophage. In words: Anti-inflammatory activity in C57BL/6 mouse primary peritoneal macrophages assessed as inhibition of LPS-induced TNFalpha secretion at 10 uM preincubated for 30 mins followed by LPS addition measured after 24 hrs by ELISA relative to control. Conditions: for inhibition at 10 µM: C57BL/6, Peritoneal macrophage. In kind it is functional. For orientation: In an ELISA, binding on a coated surface is turned into a signal by an enzyme label.

For data set [3], the system named is Peritoneal macrophage. In words: Anti-inflammatory activity in C57BL/6 mouse primary peritoneal macrophages assessed as inhibition of LPS-induced IL-6 secretion at 1 to 10 uM preincubated for 30 mins followed by LPS addition measured after 24 hrs by ELISA. In kind it is functional, cell-based.
The test system of data set [4] is Peritoneal macrophage. In words: Anti-inflammatory activity in C57BL/6 mouse primary peritoneal macrophages assessed as inhibition of LPS-induced TNFalpha secretion at 1 to 10 uM preincubated for 30 mins followed by LPS addition measured after 24 hrs by ELISA. The class given is functional, cell-based.
For data set [5], the system named is Peritoneal macrophage. In words: Anti-inflammatory activity in C57BL/6 mouse primary peritoneal macrophages assessed as inhibition of LPS-induced IL-6 secretion at 2.5 uM preincubated for 30 mins followed by LPS addition measured after 24 hrs by ELISA relative to control. The class given is functional. Conditions: C57BL/6, Peritoneal macrophage.
Data set [6] relates to Peritoneal macrophage. In words: Anti-inflammatory activity in C57BL/6 mouse primary peritoneal macrophages assessed as inhibition of LPS-induced TNFalpha secretion at 5 uM preincubated for 30 mins followed by LPS addition measured after 24 hrs by ELISA relative to control. The class given is functional. Conditions: C57BL/6, Peritoneal macrophage.
A short description of data set [7]: Chemical stability in pH 7.4 phosphate buffer at 20 uM measured at 5 mins time intervals for 25 mins by UV absorbance spectroscopic method. The class given is physicochemical. The settings on record: pH 7.4, 25 min.

Activity calls are given as the source filed them. No cut-off for these calls is given here.

Consider `O=C1/C(=C/c2ccccc2Br)COC/C1=C\c1ccccc1Br`, for which the inhibition result in the data set with Peritoneal macrophage [1] and with Peritoneal macrophage [2] was “inactive” in each case.
With `COc1ccc(/C=C2\COC/C(=C\c3ccc(OC)c(OC)c3)C2=O)cc1OC`, the inhibition result in the data set with Peritoneal macrophage [1] and in the data set on Peritoneal macrophage [2] was “inactive” each time.
With `CCN1C/C(=C\c2ccc(F)cc2)C(=O)/C(=C/c2ccc(F)cc2)C1`, the inhibition at 10 µM in the data set with Peritoneal macrophage [1] and in the data set on Peritoneal macrophage [2] was more than 80% each time. Also, the inhibition result in the data set with Peritoneal macrophage [3] and with Peritoneal macrophage [4] was “Active” each time. Besides, the inhibition at 2.5 µM with Peritoneal macrophage [5] was more than 50%. In the data set on Peritoneal macrophage [6], the inhibition at 5 µM is more than 50%.
In the case of `COc1cccc(/C=C2\COC/C(=C\c3cccc(OC)c3OC)C2=O)c1OC`, the inhibition result in the data set on Peritoneal macrophage [1] and in the data set with Peritoneal macrophage [2] was “Active” throughout.
Consider `COc1ccc(/C=C2\COC/C(=C\c3ccc(OC)cc3)C2=O)cc1`, for which the inhibition entry with Peritoneal macrophage [1] and in the data set on Peritoneal macrophage [2] was “inactive” each time.
Take `CCN1C/C(=C\c2cccc(OC)c2OC)C(=O)/C(=C/c2cccc(OC)c2OC)C1`: the Stability result in data set [7] is reported as “Stable”. Besides, the inhibition at 10 µM with Peritoneal macrophage [1] and in the data set with Peritoneal macrophage [2] was more than 80% in each case. The inhibition result with Peritoneal macrophage [3] and in the data set on Peritoneal macrophage [4] was “Active” each time. In the data set with Peritoneal macrophage [5], the inhibition at 2.5 µM was more than 50%. For the same compound, in the data set with Peritoneal macrophage [6], the inhibition at 5 µM was more than 50%.
For the compound `COc1ccccc1/C=C1\COC/C(=C\c2ccccc2OC)C1=O`, the inhibition entry in the data set with Peritoneal macrophage [1] and with Peritoneal macrophage [2] was “Active” each time.
As to `COc1cc(/C=C2\CSC/C(=C\c3cc(OC)c(OC)c(OC)c3)C2=O)cc(OC)c1OC`, the inhibition at 10 µM in the data set on Peritoneal macrophage [1] is 60%; with Peritoneal macrophage [2], 25%.
With `CN1C/C(=C\c2ccccc2Br)C(=O)/C(=C/c2ccccc2Br)C1`, the Stability entry in data set [7] is recorded as “Unstable”. Further, the inhibition at 10 µM in the data set on Peritoneal macrophage [1] and with Peritoneal macrophage [2] was more than 80% in each case. The inhibition result in the data set on Peritoneal macrophage [3] and with Peritoneal macrophage [4] was “Active” throughout. Also, the inhibition at 2.5 µM with Peritoneal macrophage [5] was more than 50%. Further, in the data set on Peritoneal macrophage [6], the inhibition at 5 µM is more than 50%.
As for `COc1cc(/C=C/C(=O)CC(=O)/C=C/c2ccc(O)c(OC)c2)ccc1O` [CURCUMIN], the Stability entry in data set [7] is “Unstable”. The inhibition result in the data set with Peritoneal macrophage [1] and with Peritoneal macrophage [2] was “Active” each time.
Turning to `O=C1/C(=C/c2cccc(O)c2)COC/C1=C\c1cccc(O)c1`, the Stability entry in data set [7] is listed as “Stable”. Further, the inhibition at 10 µM in the data set on Peritoneal macrophage [1] and in the data set on Peritoneal macrophage [2] was more than 80% throughout. Moreover, the inhibition entry in the data set with Peritoneal macrophage [3] and with Peritoneal macrophage [4] was “Active” in each case. Besides, the inhibition at 2.5 µM in the data set on Peritoneal macrophage [5] is more than 50%. The inhibition at 5 µM in the data set on Peritoneal macrophage [6] was more than 50%.

(Values after ChEMBL document CHEMBL4196029, “New MD2 inhibitors derived from curcumin with improved anti-inflammatory activity” (Eur J Med Chem, 2018).)
